Among the data in US6472530B1, “Benzo-fused dithiepino[6,5-b]pyridines, and related compositions and methods” (Ortho-McNeil Pharmaceutical, Inc., priority 1999, dated 2002) are IC50 values, retold here.

The first experiment deals with T1, calcium channel (Oryctolagus cuniculus, UniProt P15381).
T1 construct: from tissue; host or cells: rabbit heart membrane preparation
T1 sequence (P15381 whole entry, other chains not shown): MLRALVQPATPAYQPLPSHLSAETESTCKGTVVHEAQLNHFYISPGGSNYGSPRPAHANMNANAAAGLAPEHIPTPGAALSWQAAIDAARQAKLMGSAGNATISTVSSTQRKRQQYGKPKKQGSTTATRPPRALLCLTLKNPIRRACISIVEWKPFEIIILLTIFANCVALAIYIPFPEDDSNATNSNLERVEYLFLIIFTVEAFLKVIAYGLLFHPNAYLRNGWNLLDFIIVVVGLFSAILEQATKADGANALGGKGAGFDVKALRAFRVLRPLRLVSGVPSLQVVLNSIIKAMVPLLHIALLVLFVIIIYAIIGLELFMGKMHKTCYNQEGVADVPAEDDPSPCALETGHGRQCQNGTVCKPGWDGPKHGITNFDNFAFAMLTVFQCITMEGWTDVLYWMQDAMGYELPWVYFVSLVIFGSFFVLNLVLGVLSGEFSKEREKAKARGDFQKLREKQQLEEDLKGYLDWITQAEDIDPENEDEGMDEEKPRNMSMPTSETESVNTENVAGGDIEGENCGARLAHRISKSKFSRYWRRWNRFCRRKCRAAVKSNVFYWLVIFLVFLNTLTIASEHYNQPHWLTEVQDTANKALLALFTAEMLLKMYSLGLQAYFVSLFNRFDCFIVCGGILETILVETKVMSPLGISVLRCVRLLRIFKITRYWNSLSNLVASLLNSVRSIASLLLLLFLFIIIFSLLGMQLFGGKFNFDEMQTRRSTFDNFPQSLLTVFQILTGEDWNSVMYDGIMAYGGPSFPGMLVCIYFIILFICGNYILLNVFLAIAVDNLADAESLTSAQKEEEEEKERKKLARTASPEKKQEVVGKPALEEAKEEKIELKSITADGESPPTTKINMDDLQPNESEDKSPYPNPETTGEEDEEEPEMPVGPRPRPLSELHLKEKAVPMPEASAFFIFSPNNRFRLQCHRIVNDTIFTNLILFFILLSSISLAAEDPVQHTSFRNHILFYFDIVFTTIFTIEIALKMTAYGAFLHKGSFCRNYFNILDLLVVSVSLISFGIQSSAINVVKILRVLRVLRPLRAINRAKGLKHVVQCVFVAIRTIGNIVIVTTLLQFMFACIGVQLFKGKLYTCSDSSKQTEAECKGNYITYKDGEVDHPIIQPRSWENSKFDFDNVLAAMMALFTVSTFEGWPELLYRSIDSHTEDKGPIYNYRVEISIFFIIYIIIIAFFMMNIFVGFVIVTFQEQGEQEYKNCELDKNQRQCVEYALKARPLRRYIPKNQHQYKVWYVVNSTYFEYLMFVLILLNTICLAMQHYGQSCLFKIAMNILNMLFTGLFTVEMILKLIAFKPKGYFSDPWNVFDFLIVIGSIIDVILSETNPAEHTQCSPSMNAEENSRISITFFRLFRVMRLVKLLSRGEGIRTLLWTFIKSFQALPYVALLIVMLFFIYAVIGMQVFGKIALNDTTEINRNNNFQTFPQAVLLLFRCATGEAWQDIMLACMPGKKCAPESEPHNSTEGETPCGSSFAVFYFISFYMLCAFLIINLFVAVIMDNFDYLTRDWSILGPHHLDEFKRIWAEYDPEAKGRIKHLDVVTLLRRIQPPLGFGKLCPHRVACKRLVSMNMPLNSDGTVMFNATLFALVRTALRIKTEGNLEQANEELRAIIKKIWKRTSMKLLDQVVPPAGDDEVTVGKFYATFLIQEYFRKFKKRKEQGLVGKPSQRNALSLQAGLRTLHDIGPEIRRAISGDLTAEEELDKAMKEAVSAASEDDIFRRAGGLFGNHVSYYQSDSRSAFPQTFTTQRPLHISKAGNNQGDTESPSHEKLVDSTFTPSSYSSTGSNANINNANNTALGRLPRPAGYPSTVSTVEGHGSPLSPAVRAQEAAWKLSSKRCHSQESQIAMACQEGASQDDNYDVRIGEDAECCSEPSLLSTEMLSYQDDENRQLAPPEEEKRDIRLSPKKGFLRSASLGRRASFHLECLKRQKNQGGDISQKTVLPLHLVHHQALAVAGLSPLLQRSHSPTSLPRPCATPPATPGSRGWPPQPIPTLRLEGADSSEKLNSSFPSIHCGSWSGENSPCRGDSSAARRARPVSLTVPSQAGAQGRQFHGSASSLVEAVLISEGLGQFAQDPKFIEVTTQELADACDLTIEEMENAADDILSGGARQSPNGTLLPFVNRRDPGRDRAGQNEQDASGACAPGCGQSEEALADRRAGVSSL
T1 sequence (P13806 27-960 partner limits assumed, other chains not shown): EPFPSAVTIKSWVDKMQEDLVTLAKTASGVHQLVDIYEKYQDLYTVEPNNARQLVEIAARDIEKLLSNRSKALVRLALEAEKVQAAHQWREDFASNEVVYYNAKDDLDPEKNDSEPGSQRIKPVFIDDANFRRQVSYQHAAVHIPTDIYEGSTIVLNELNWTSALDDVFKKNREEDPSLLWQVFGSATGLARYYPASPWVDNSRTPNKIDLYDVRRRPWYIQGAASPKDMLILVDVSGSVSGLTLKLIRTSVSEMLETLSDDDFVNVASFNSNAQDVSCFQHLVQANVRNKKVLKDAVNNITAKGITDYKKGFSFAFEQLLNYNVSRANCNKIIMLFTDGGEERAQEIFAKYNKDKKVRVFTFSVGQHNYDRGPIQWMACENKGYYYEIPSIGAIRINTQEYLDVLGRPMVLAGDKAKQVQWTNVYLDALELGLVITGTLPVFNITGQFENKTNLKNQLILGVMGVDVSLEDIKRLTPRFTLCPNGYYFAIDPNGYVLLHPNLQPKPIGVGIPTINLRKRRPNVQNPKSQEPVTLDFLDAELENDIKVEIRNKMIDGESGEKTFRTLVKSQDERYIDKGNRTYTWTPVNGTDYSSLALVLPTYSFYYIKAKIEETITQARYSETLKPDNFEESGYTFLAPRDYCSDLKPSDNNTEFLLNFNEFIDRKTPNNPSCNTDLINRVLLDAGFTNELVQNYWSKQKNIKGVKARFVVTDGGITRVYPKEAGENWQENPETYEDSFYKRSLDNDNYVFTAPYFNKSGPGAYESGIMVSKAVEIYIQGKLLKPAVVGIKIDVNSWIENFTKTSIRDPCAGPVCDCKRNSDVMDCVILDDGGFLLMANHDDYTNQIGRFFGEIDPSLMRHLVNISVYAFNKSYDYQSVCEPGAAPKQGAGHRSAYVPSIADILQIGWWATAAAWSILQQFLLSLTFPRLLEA
T1 sequence (P13806 961-1106 partner limits assumed, other chains not shown): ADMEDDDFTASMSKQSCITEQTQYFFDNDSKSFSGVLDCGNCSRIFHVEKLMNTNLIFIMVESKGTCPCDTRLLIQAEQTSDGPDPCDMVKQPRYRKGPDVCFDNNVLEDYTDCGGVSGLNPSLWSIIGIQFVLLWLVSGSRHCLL
In words: Assay for Inhibition of Nitrendipine Binding (3H-nitrendipine, heart membranes). Also on record: species or system rabbit. The following applies: Table 1, compounds of Formula I; 3H-nitrendipine displacement, rabbit heart membranes; read-out: Nitrendipine Binding Assay IC50. The method, then: Assay for Inhibition of Nitrendipine Binding
Female, New Zealand white rabbits (1-2 kg) are sacrificed by cervical dislocation, and the heart is immediately removed, cleaned and chopped into small pieces. The tissue is homogenized in 5×times volume of 0.05M Hepes buffer, pH 7.4. The homogenate is centrifuged at 4000 g for 10 minutes, and the supernatant is re-centrifuged at 42,000×g for 90 minutes. The resulting membrane pellet is resuspended (0.7 ml/g weight) in 0.05M Hepes, pH 7.4 and stored at […] until used. Each tube of the binding assay contains ^3H-nitrendipine (0.05-0.50 nM), buffer, membranes (0.10 ml), and test compound in a total volume of 1.0 ml. After 90 minutes at 4° C., the bound nitrendipine is separated from the unbound by filtration on Whatman GF/C filters. After rinsing, the filters are dried and counted in a liquid scintillation counter.
Non-specific binding of ^3H-nitrendipine (that amount bound in the presence of excess unlabelled nitrendipine) is subtracted from the total bound to obtain specifically bound radiolabeled nitrendipine. The amount of specifically bound nitrendipine in the presence of a test compound is compared to that amount bound in the absence of a compound. A percent displacement (or inhibition) can then be calculated.
On to `COC(=O)C1=C(C)NC2=C(C1c1cccc(Cl)c1Cl)S(=O)(=O)c1ccccc1[S+]([O-])C2` (stereo not drawn) [Compound 7, 1H-[1,5]Benzodithiepino[3,2-b]pyridine-3-carboxylic acid, 4-(2,3-dichlorophenyl)-4,11-dihydro-2-methyl, methyl ester, 5,5,10-trioxide], for which the IC50 was determined as 8 nM.

Take `COC(=O)C1=C(C)NC2=C(C1c1c(F)c(F)c(F)c(F)c1F)S(=O)(=O)c1ccccc1S(=O)(=O)C2` (stereo not drawn) [Compound 11, 1H-[1,5]Benzodithiepino[3,2-b]pyridine-3-carboxylic acid, 4,11-dihydro-2-methyl-4-(pentafluorophenyl), methyl ester, 5,5,10,10-tetraoxide]: the IC50 worked out at 12 nM.

For `COC(=O)C1=C(C)NC2=C(C1c1cccc(Cl)c1)S(=O)(=O)c1ccccc1[S+]([O-])C2` (stereo not drawn) [Compound 6, 1H-[1,5]Benzodithiepino[3,2-b]pyridine-3-carboxylic acid, 4-(3-chlorophenyl)-4,11-dihydro-2-methyl, methyl ester, 5,5,10-trioxide], the IC50 was 20 nM.

For the compound `COC(=O)C1=C(C)NC2=C(C1c1ccccc1[N+](=O)[O-])S(=O)(=O)c1ccccc1S(=O)(=O)C2` (stereo not drawn) [Compound 10], the concentration for half-maximal inhibition (IC50) was 36 nM.

Consider `CC1=C(C(=O)OCCN(C)Cc2ccccc2)C(c2ccccc2Cl)C2=C(CS(=O)(=O)c3ccccc3S2(=O)=O)N1` (stereo not drawn) [Compound 19, 1H-[1,5]Benzodithiepino[3,2-b]pyridine-3-carboxylic acid, 4-(2-chlorophenyl)-4,11-dihydro-2-methyl, 2-[methyl(phenylmethyl)amino]ethyl ester, 5,5,10,10-tetraoxide], for which the 50% inhibitory concentration (IC50) was determined as 18 nM.

Take `CC1=C(C(=O)OCCN(C)Cc2ccccc2)C(c2ccccc2[N+](=O)[O-])C2=C(CS(=O)(=O)c3ccccc3S2(=O)=O)N1` (stereo not drawn) [Compound 3, 1H-[1,5]Benzodithiepino[3,2-b]pyridine-3-carboxylic acid, 4,11-dihydro-2-methyl-4-(2-nitrophenyl), 2-[methyl(phenylmethyl)amino]ethyl ester, 5,5,10,10-tetraoxide]: the half-inhibitory concentration (IC50) was determined as 34 nM.

For the compound `CC1=C(C(=O)OCCN(C)Cc2ccccc2)C(c2cccc(Cl)c2Cl)C2=C(CS(=O)(=O)c3ccccc3S2(=O)=O)N1` (stereo not drawn) [Compound 2, 1H-[1,5]Benzodithiepino[3,2-b]pyridine-3-carboxylic acid, 4-(2,3-dichlorophenyl)-4,11-dihydro-2-methyl, 2-[methyl(phenylmethyl)amino]ethyl ester, 5,5,10,10-tetraoxide], the 50% inhibitory concentration (IC50) was found to be 20 nM.

For `COC(=O)C1=C(C)NC2=C(C1c1cccc(Cl)c1Cl)S(=O)(=O)c1ccccc1S(=O)(=O)C2` (stereo not drawn) [Compound 8, 1H-[1,5]Benzodithiepino[3,2-b]pyridine-3-carboxylic acid, 4-(2,3-dichlorophenyl)-4,11-dihydro-2-methyl, methyl ester, 5,5,10,10-tetraoxide], the IC50 came out at 22 nM.

In the case of `CC1=C(C(=O)OCCN(C)Cc2ccccc2)C(c2cccc([N+](=O)[O-])c2)C2=C(CS(=O)(=O)c3ccccc3S2(=O)=O)N1` (stereo not drawn) [Compound 16, 1H-[1,5]Benzodithiepino[3,2-b]pyridine-3-carboxylic acid, 4,11-dihydro-2-methyl-4-(3-nitrophenyl), 2-[methyl(phenylmethyl)amino]ethyl ester, 5,5,10,10-tetraoxide], the IC50 came to 24 nM.

With `CC1=C(C(=O)OCCN(C)Cc2ccccc2)C(c2c(F)c(F)c(F)c(F)c2F)C2=C(CS(=O)(=O)c3ccccc3S2(=O)=O)N1` (stereo not drawn) [Compound 12, 1H-[1,5]Benzodithiepino[3,2-b]pyridine-3-carboxylic acid, 4,11-dihydro-2-methyl-4-(pentafluorophenyl), 2-[methyl(phenylmethyl)amino]ethyl ester, 5,5,10,10-tetraoxide], the concentration for half-maximal inhibition (IC50) amounted to 21 nM.

Regarding `CC1=C(C(=O)OCCN(C)Cc2ccccc2)C(c2ccccc2Cl)C2=C(C[S+]([O-])c3ccccc3S2(=O)=O)N1` (stereo not drawn) [Compound 18, 1H-[1,5]Benzodithiepino[3,2-b]pyridine-3-carboxylic acid, 4-(2-chlorophenyl)-4,11-dihydro-2-methyl, 2-[methyl(phenylmethyl)amino]ethyl ester, 5,5,10-trioxide], the half-maximal inhibitory concentration (IC50) was 23 nM.

For the compound `COC(=O)C1=C(C)NC2=C(C1c1cccc(Cl)c1)S(=O)(=O)c1ccccc1S(=O)(=O)C2` (stereo not drawn) [Compound 9, 1H-[1,5]Benzodithiepino[3,2-b]pyridine-3-carboxylic acid, 4-(3-chlorophenyl)-4,11-dihydro-2-methyl, methyl ester, 5,5,10,10-tetraoxide], the half-maximal inhibitory concentration (IC50) worked out at 10 nM.

In the case of `COC(=O)C1=C(C)NC2=C(C1c1cccc(C(F)(F)F)c1F)S(=O)(=O)c1ccccc1S(=O)(=O)C2` (stereo not drawn) [Compound 13, 1H-[1,5]Benzodithiepino[3,2-b]pyridine-3-carboxylic acid, 4-[2-fluoro-3-(trifluoromethyl)phenyl]-4,11-dihydro-2-methyl, methyl ester, 5,5,10,10-tetraoxide], the half-inhibitory concentration (IC50) turned out to be 14 nM.

Regarding `COC(=O)C1=C(C)NC2=C(C1c1ccccc1Cl)S(=O)(=O)c1ccccc1S(=O)(=O)C2` (stereo not drawn) [Compound 5, 1H-[1,5]Benzodithiepino[3,2-b]pyridine-3-carboxylic acid, 4-(2-chlorophenyl)-4,11-dihydro-2-methyl, methyl ester, 5,5,10,10-tetraoxide], the IC50 is 9 nM.

The same experiment, now with this note: Table 2, compounds of Formula II; 3H-nitrendipine displacement, rabbit heart membranes; read-out: Nitrendipine Binding IC50.
Consider `CC1=C(C(=O)OCCOC(=O)C2CCCCC2)C(c2c(F)cccc2Cl)C2=C(CS(=O)(=O)c3ccccc3S2(=O)=O)N1` (stereo not drawn) [Compound 24, 1H-[1,5]benzodithiepino[3,2-b]pyridine-3-carboxylic acid, 4-(2-chloro-6-fluorophenyl)-4,11-dihydro-2-methyl-, 2-[(cyclohexylcarbonyl)oxy]ethyl ester, 5,5,10,10-tetraoxide], for which the concentration for half-maximal inhibition (IC50) was found to be 43 nM.

With `CC1=C(C(=O)OCCOC(=O)/C=C/c2ccccc2)C(c2c(F)cccc2Cl)C2=C(CS(=O)(=O)c3ccccc3S2(=O)=O)N1` (stereo not drawn) [Compound 37, 1H-[1,5]benzodithiepino[3,2-b]pyridine-3-carboxylic acid, 4-(2-chloro-6-fluorophenyl)-4,11-dihydro-2-methyl-, 2-[[(2E)-1-oxo-3-phenyl-2-propenyl]oxy]ethyl ester, 5,5,10,10-tetraoxide], the 50% inhibitory concentration (IC50) is 101 nM.

As to `CC1=C(C(=O)OCCOC(=O)C(C)c2ccc(CC(C)C)cc2)C(c2c(F)cccc2Cl)C2=C(CS(=O)(=O)c3ccccc3S2(=O)=O)N1` (stereo not drawn) [Compound 32], the IC50 stood at 618 nM.

Turning to `CC1=C(C(=O)OCCOC(=O)CCCCCCc2ccccc2)C(c2c(F)cccc2Cl)C2=C(CS(=O)(=O)c3ccccc3S2(=O)=O)N1` (stereo not drawn) [Compound 35], the 50% inhibitory concentration (IC50) was determined as 60 nM.

As to `CC1=C(C(=O)OCCOC(=O)CCCCCCCCCc2ccccc2)C(c2c(F)cccc2Cl)C2=C(CS(=O)(=O)c3ccccc3S2(=O)=O)N1` (stereo not drawn) [Compound 36], the IC50 worked out at 116000 nM.

As to `CC1=C(C(=O)OCc2oc(=O)oc2-c2ccccc2)C(c2c(F)cccc2Cl)C2=C(CS(=O)(=O)c3ccccc3S2(=O)=O)N1` (stereo not drawn) [Compound 40], the concentration for half-maximal inhibition (IC50) came out at 11 nM.

Take `CC1=C(C(=O)OCCOC(=O)C(C)(C)C)C(c2c(F)cccc2Cl)C2=C(CS(=O)(=O)c3ccccc3S2(=O)=O)N1` (stereo not drawn) [Compound 28, 1H-[1,5]benzodithiepino[3,2-b]pyridine-3-carboxylic acid, 4-(2-chloro-6-fluorophenyl)-4,11-dihydro-2-methyl-, 2-(2,2-dimethyl-1-oxopropoxy)ethyl ester, 5,5,10,10-tetraoxide]: the concentration for half-maximal inhibition (IC50) came out at 370 nM.

For the compound `CC1=C(C(=O)OCCO)C(c2c(F)cccc2Cl)C2=C(CS(=O)(=O)c3ccccc3S2(=O)=O)N1` (stereo not drawn) [Compound 21], the IC50 came out at 6070 nM.

`COc1ccc2cc([C@H](C)C(=O)OCCOC(=O)C3=C(C)NC4=C(C3c3c(F)cccc3Cl)S(=O)(=O)c3ccccc3S(=O)(=O)C4)ccc2c1` (stereo partly drawn) [Compound 31, 1H-[1,5]benzodithiepino[3,2-b]pyridine-3-carboxylic acid, 4-(2-chloro-6-fluorophenyl)-4,11-dihydro-2-methyl-, 2-[[(2S)-2-(6-methoxy-2-naphthalenyl)-1-oxopropyl]oxy]ethyl ester, 5,5,10,10-tetraoxide]: the half-inhibitory concentration (IC50) came out at 209 nM.

Regarding `CC1=C(C(=O)OCCNC(=O)OC(C)(C)C)C(c2c(F)cccc2Cl)C2=C(CS(=O)(=O)c3ccccc3S2(=O)=O)N1` (stereo not drawn) [Compound 25, 1H-[1,5]benzodithiepino[3,2-b]pyridine-3-carboxylic acid, 4-(2-chloro-6-fluorophenyl)-4,11-dihydro-2-methyl-, 2-[[(1,1-dimethylethoxy)carbonyl]amino]ethyl ester, 5,5,10,10-tetraoxide], the concentration for half-maximal inhibition (IC50) worked out at 420 nM.

In the case of `CC1=C(C(=O)OCCN)C(c2c(F)cccc2Cl)C2=C(CS(=O)(=O)c3ccccc3S2(=O)=O)N1` (stereo not drawn) [Compound 26, 1H-[1,5]benzodithiepino[3,2-b]pyridine-3-carboxylic acid, 4-(2-chloro-6-fluorophenyl)-4,11-dihydro-2-methyl-, 2-aminoethyl ester, 5,5,10,10-tetraoxide], the IC50 was 2000 nM.

In the case of `CC1=C(C(=O)OCCCO)C(c2c(F)cccc2Cl)C2=C(CS(=O)(=O)c3ccccc3S2(=O)=O)N1` (stereo not drawn) [Compound 33], the IC50 is 1440 nM.

As for `CC1=C(C(=O)OCCO)C(c2c(F)cccc2Cl)C2=C(C[S+]([O-])c3ccccc3S2(=O)=O)N1` (stereo not drawn) [Compound 20], the IC50 came out at 306 nM.
